Laboratory results: patent EP0514275A1, “Thiopyranopyrrole derivatives, their preparation and pharmaceutical compositions containing them” (RHONE-POULENC RORER S.A., priority 1991, dated 1992)

Tests used:
[1] = Analgesic activity (technique of Siegmund E. et al.); assay type: in vivo; conditions: po, read-out: DE50 mg/kg p.o.
Source text: II a notamment été mis en évidence, par l'étude de plusieurs produits que les nouveaux dérivés de thiopyranopyrrole manifestent une activité analgésique dans la technique de Siegmund E. et coll., Proc. Soc. Exp. Biol. Med., 95, 729 (1957).

[2] = system: septide (agoniste de la substance P); assay: Inhibition of septide-induced increase in capillary permeability (technique of A. Saria et al. adapted to the mouse); assay type: in vivo, souris; conditions: sc, capillary permeability increase caused by septide, read-out: DE50 mg/kg s.c.
Source text: L'étude de plusieurs dérivés de thiopyranopyrrole de formule générale (I) dans la technique de A. Saria et coll., Arch. Pharmacol.,324, 212-218 (1983) adaptée à la souris a permis de mettre en évidence un effet inhibiteur de l'augmentation de la perméabilité capillaire entraîné par le septide (agoniste de la substance P, ce qui témoigne d'une activité anti-inflammatoire : […]

substance P = assay: Antagonism of substance P-induced hypotension (technique of C.A. Maggi et al.); assay type: in vivo; conditions: rat; 1 mg/kg i.v./mn for 5 mn; hypotension induced by i.v. injection of 250 mg/kg of substance P
Experimental: L'injection de substance P chez l'animal provoque une hypotension. Les produits étudiés dans la technique de C.A. Maggi et coll., J. Auton. Pharmac., 7, 11-32 (1987) manifestent un effet antagoniste chez le rat vis-à-vis de cette hypotension. Notamment les produits administrés à la dose de 1 mg/kg i.v./mn, pendant 5 mn, provoquent un antagonisme de l'hypotension induite par une injection i.v. de […] de substance P.

| SMILES | ED50 [1] | ED50 [2] | % d'inhibition de l'hypotension (substance P) |
| --- | --- | --- | --- |
| CN(C)CCCOc1ccccc1CC(=O)N1C[C@@H]2[C@H](C1)[S@+]([O-])CCC2(c1ccccc1)c1ccccc1 (racemic) [Exemple 7, {[(diméthylamino-3 propoxy-2)phényl]acétyl}-6 diphényl-4,4 oxyde-1 perhydrothiopyrano [2,3-c]pyrrole-(1RS,4aRS,7aRS)] | 3 mg/kg | – | – |
| CN(C)CCCOc1ccccc1CC(=O)N1C[C@@H]2[C@H](C1)[S@+]([O-])CCC2(c1ccccc1)c1ccccc1 (single isomer, unassigned) [Exemple 8, (-)-{[(diméthylamino-3 propoxy-2)phényl]-2 acétyl}-6 diphényl-4,4 oxyde-1 perhydrothiopyrano [2,3-c]pyrrole-(1R*,4aR*,7aR*)] | – | 0.05 mg/kg | 100% |
| COc1ccccc1[C@H](C)C(=O)N1C[C@@H]2[C@H](C1)[S@+]([O-])CCC2(c1ccccc1)c1ccccc1 (single isomer, unassigned) [Exemple 10, [(-)-(méthoxy-2 phényl)-2 propionyl-(S) ] -6 diphényl-4,4 oxyde-1 erhydrothiopyrano[2,3-c]pyrrole-(1R*, 4aR*, 7aR*)] | 1.7 mg/kg | < 0.1 mg/kg | 100% |
